Experimental data reported in patent publication US20240025906A1 (NEURON23, INC., priority 2022, published 2024).
Like-named read-outs stand apart in the source and are kept apart here.

Tests used:
[1] = molecular target: T1, TYK2 JH2 (Homo sapiens, UniProt P29597); test: TYK2 JH2 binding assay (KINOMEscan KdELECT competitive binding); conditions: TYK2 JH2 domain
T1 construct: purchased DiscoverX (KINOMEscan KdELECT service); host or cells: E. coli BL21-derived (T7 phage display) or HEK-293
Procedure, shortened: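 Beads carrying a biotinylated ligand were mixed with tagged JH2 kinase and compound (11 points, 3-fold steps, 0.9% DMSO) and shaken 1 h at room temperature. After washing, kinase was released with 0.5 μM untagged ligand over 30 min and measured by qPCR to derive Kd.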

[2] = system: JAK1/TYK2 pSTAT5 (Tyr694/699) in THP-1 cell line; test: IFNa-stimulated JAK1/TYK2 pSTAT5 (Tyr694/699) inhibition cellular assay, AlphaLISA; format: cell-based; conditions: Homo sapiens, THP-1 cells, AlphaLISA (Assay B)
Procedure, shortened: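 Compound dilutions were dispensed first, and HBSS-suspended THP-1 cells were added on top (final top concentration 10000 nM, 6-fold series). After 1 h at 37 °C, IFNa (100 ng/mL as added) was applied for 30 min. Cells were then lysed and pSTAT5 was quantified by AlphaLISA.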

[3] = KINOMEscan KdELECT (Assay A), read-out: Biochemical TYK2_DiscoverX_JH2_BND_Kd
[4] = IFNa-stimulated, read-out: Cellular_THP1_IFNa-pSTATS_TYK2
[5] = IFNa-stimulated pSTAT5 (Tyr694/699), read-out: Cellular_THP1_IFNa-pSTATS_TYK2
[6] = DiscoverX KINOMEscan KdELECT (Assay A), read-out: Biochemical TYK2_DiscoverX_JH2_BND_Kd

T1 sequence (P29597 589-875 limits assumed): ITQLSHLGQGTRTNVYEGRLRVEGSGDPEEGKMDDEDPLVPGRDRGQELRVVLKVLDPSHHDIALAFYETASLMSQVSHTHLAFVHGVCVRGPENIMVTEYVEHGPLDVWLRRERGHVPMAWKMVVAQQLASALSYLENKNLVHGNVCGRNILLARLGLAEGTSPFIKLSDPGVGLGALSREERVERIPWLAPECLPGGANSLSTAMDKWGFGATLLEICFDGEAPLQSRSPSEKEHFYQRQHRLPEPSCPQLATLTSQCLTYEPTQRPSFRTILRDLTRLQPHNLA

Row | SMILES | Kd [1, 3] [nM] | IC50 [2, 4] [nM] | Kd [1, 6] [nM] | also measured
1 | CNc1ncc(C#Cc2ccc(OCC(C)(C)O)cc2)c2cc(NC(=O)[C@@H]3C[C@@H]3C(F)F)ncc12 (single isomer, unassigned) [Example 756] | ≤ 100 | ≤ 500 | – | –
2 | CNc1ncc(-c2ccc(C(=O)C3CC3)cc2)c2cc(NC(=O)C3CC3)ncc12 [Example 144, N-(5-(4-(cyclopropanecarbonyl)phenyl)-8-(methylamino)-2,7-naphthyridin-3-yl)cyclopropanecarboxamide] | – | – | – | Kd ([1]; KINOMEscan KdELECT (Assay A), read-out: Biochemical TYK2_JH2_Kd): ≤ 100 nM; IC50 ([2]; IFNa-stimulated, read-out: Cellular THP1_IFNa-pSTATS_IC50): > 500 nM
3 | CNc1ncc(-c2nc3ccc(N4C[C@@H](C)O[C@@H](C)C4)cn3n2)c2cc(NC(=O)CC(F)(F)F)ncc12 [Example 556, N-(5-(6-((2R,6S)-2,6-dimethylmorpholino)-[1,2,4]triazolo[1,5-a]pyridin-2-yl)-8-(methylamino)-2,7-naphthyridin-3-yl)-3,3,3-trifluoropropanamide] | – | ≤ 500 | ≤ 100 | –
4 | CNc1ncc(-c2nc3cc(C4CCOCC4C)ccc3o2)c2cc(NC(=O)C3CC3)ncc12 (centres unmarked) [Example 249, N-(8-(methylamino)-5-(5-(3-methyltetrahydro-2H-pyran-4-yl)benzo[d]oxazol-2-yl)-2,7-naphthyridin-3-yl)cyclopropanecarboxamide] | – | ≤ 500 | ≤ 100 | –
5 | CNc1ncc(-c2nc3cc(N4C[C@H]5C[C@@H]4CO5)ccc3o2)c2cc(NC(=O)C3CC3)ncc12 [Example 299, N-(5-(5-((1R,4R)-2-oxa-5-azabicyclo[2.2.1]heptan-5-yl)benzo[d]oxazol-2-y1)-8-(methylamino)-2,7-naphthyridin-3-yl)cyclopropanecarboxamide] | – | ≤ 500 | ≤ 100 | –
6 | CNc1ncc(C#Cc2ccc3nc(OC)n(C)c3c2)c2cc(NC(=O)C3CC3)ncc12 [Example 719, N-(5-((2-methoxy-1-methyl-1H-benzo[d]imidazol-6-yl)ethynyl)-8-(methylamino)-2,7-naphthyridin-3-yl)cyclopropanecarboxamide] | ≤ 100 | ≤ 500 | – | –
7 | CNc1ncc(-c2nc3ccc(OC(F)(F)F)cn3n2)c2cc(NC(=O)C3CC3)ncc12 [Example 493A, N-(8-(methylamino)-5-(6-(trifluoromethoxy)-[1,2,4]triazolo[1,5-a]pyridin-2-yl)-2,7-naphthyridin-3-yl)cyclopropanecarboxamide] | – | ≤ 500 | ≤ 100 | –

The next lines start with results.

Row | Kd [1, 3] [nM] | IC50 [2, 4] [nM] | Kd [1, 6] [nM] | SMILES | also measured
8 | ≤ 100 | – | – | CNc1ncc(-c2nc3ccc(-c4ccn(C)n4)cn3n2)c2cc(NC(=O)C3CC3)ncc12 [Example 1042] | IC50 [2, 5]: ≤ 500 nM
9 | ≤ 100 | ≤ 500 | – | CCC(=O)N1CC(Oc2ccc(C#Cc3cnc(NC)c4cnc(NC(=O)C5CC5)cc34)cc2)C1 [Example 770, N-(8-(methylamino)-5-((4-((1-propionylazetidin-3-yl)oxy)phenyl)ethynyl)-2,7-naphthyridin-3-yl) cyclopropanecarboxamide] | –
10 | ≤ 100 | – | – | CNc1ncc(C#Cc2cccc3c2CCCC3=O)c2cc(NC(=O)C3CC3)ncc12 [Example 1019, N-(8-(methylamino)-5-((5-oxo-5,6,7,8-tetrahydronaphthalen-1-yl)ethynyl)-2,7-naphthyridin-3-yl)cyclopropanecarboxamide] | IC50 [2, 5]: ≤ 500 nM
11 | ≤ 100 | ≤ 500 | – | CNc1ncc(/C=C/c2ccc(CC#N)cc2)c2cc(NC(=O)C3CC3)ncc12 [Example 783, (E)-N-(5-(4-(cyanomethyl)styryl)-8-(methylamino)-2,7-naphthyridin-3-yl)cyclopropanecarboxamide] | –
12 | ≤ 100 | ≤ 500 | – | CNc1ncc(C#Cc2ccc(OC)c(C)n2)c2cc(NC(=O)C3CC3)ncc12 [Example 904, N-(5-((5-methoxy-6-methylpyridin-2-yl)ethynyl)-8-(methylamino)-2,7-naphthyridin-3-yl)cyclopropanecarboxamide] | –
13 | ≤ 100 | – | – | CNc1ncc(-c2nc3cc(N(C)C(C)=O)ccc3o2)c2cc(Nc3cccc(OC)n3)ncc12 [Example 1086, N-[2-[6-[(6-methoxy-2-pyridyl)amino]-1-(methylamino)-2,7-naphthyridin-4-yl]-1,3-benzoxazol-5-yl]-N-methyl-acetamide] | IC50 [2, 5]: ≤ 500 nM
